Patent US12274751B2, “Composition and method of the use of colchicine oral liquid” (priority 2016, dated 2025)

Tests used:
[1] = Stability of colchicine solution, colchicine assay (% label claim); format: physicochemical; details: API (colchicine drug substance), calculated on the anhydrous, solvent-free basis
Protocol: The colchicine solution is formulated and assayed for colchicine levels. Stability of the claimed formulation was tested at room temperature, 30° C., and 40° C. and assayed for the colchicine. […] The fact that the oral solution was so stable after 6 months at an accelerated temperature (40 degrees Celsius, which corresponds to 24 months at room temperature) was quite surprising. Solutions of colchicine for oral administration to humans have not been developed because they were believed to be too unstable. The data presented herein show for the first time that an oral colchicine solution can remain stable with minimal degradants and thus have a long shelf life consistent with commercial formulations.
The colchicine solution in Table 4 was packaged in a 190 mL HDPE bottle and assayed by HPLC cUSP.
The label claim of the liquid solution is 0.12 mg/ml and the assay results of the active ingredient are reported as percent of label claim. For instance, the label claim of an exemplary colchicine solution of the invention is 0.12 mg/ml. The FDA requirement for stability results for drugs is 90-110% label claim.

[2] = in the presence of glycerin; Habib et al. 1989; cited from earlier work
[3] = in vitro; details: human, Caco-2
Protocol: To verify the Caco-2 cell monolayers were properly formed, aliquots of the cell buffers were analyzed by fluorescence to determine the transport of the impermeable dye Lucifer Yellow.

Structure (SMILES): COc1cc2c(c(OC)c1OC)-c1ccc(OC)c(=O)cc1[C@@H](NC(C)=O)CC2 [Colchicine, (−)-N-[(7S,12aS)-1,2,3,10-tetramethoxy-9-oxo-5,6,7,9-tetrahydrobenzo[a]heptalen-7-yl]-acetamide]
- Stability Results (% Label Claim) [1]: 91.8% Label Claim
- loss by photodegradation in solution [2]: ≤ 50%

Structure (SMILES): COCCc1ccc(OCC(O)CNC(C)C)cc1 (centres unmarked) [metoprolol]
- Papp A→B [3]: 13.7 ×10⁻⁶ cm/s
- Papp B→A [3]: 27.2 ×10⁻⁶ cm/s

Structure (SMILES): CNC(=C[N+](=O)[O-])NCCSCc1ccc(CN(C)C)o1 [ranitidine]
- Papp A→B [3]: 0.27 ×10⁻⁶ cm/s
